In US10023592B2, “Bromodomain inhibitors” (Celgene Quanticel Research, Inc., priority 2013, dated 2018) one finds IC50 data, which are given here for 24 molecules.

Broadly, the pIC50 is −log10 of the IC50, conventionally taken in molar units.

pIC50: −log10 of the molar value.

One test deals with BRD4(BD1) (Homo sapiens (Human), UniProt O60885). As to the kind of experiment: In vitro enzyme inhibition assay (BRD4 AlphaScreen). It is filed as binding. A digest of the protocol: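 AlphaScreen proximity readout, using streptavidin donor and Ni-chelate acceptor beads at 5 μg/mL final, monitors biotin-H4 tetraacetylated peptide interaction with purified His-tagged BRD4.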
Test [1] concerns HL-60, human proleukemia cells. As to the kind of experiment: Cell-MTS proliferation assay, HL-60. It is filed as cell-based. The conditions noted are these: 168 hr. A digest of the protocol:
(§1)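 Seven-day colorimetric MTS assay; compound at 11 concentrations from 100 μM down to 2.0 nM final, added a day after plating. IC50 from OD490 normalised to DMSO controls.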

The subject of test [2] is NCI-H460, human non-small cell lung cancer cells. The test is described as follows: Cell-MTS proliferation assay, NCI-H460. In kind it is cell-based. The conditions noted are these: 168 hr. A digest of the protocol: as §1
(Tetrazolium dyes change colour on reduction, which living cells bring about.)

The test system of test [3] is Raji, human Burkitts lymphoma cells. The test is described as follows: Cell-MTS proliferation assay, Raji. It is filed as cell-based. As to conditions: 168 hr. The essentials: as §1
The mark [4] stands for this setting: in vitro enzyme inhibition assay.
The mark [5] stands for this setting: Homo sapiens, Cell-MTS proliferation, HL-60 cells.
[6] abbreviates: Homo sapiens, Cell-MTS proliferation, NCI-H460 cells.
The mark [7] stands for this setting: Homo sapiens, Cell-MTS proliferation, Raji cells.
The mark [8] stands for this setting: Homo sapiens, HL-60, Cell-MTS, class symbols A/B/C.
[9] abbreviates: Homo sapiens, NCI-H460, Cell-MTS, class symbols A/B/C.
Where [10] appears, read: Homo sapiens, Raji, Cell-MTS, class symbols A/B/C.
Where [11] appears, read: Homo sapiens, HL-60, Cell-MTS proliferation.
Where [12] appears, read: Homo sapiens, NCI-H460, Cell-MTS proliferation.
Where [13] appears, read: Homo sapiens, Raji, Cell-MTS proliferation.

Regarding `Cc1cc(-c2cc(CS(C)(=O)=O)ccc2OCC(F)(F)F)cn(C)c1=O` [Example 427, 1,3-dimethyl-5-[5-(methylsulfonylmethyl)-2-(2,2,2-trifluoroethoxy)phenyl]pyridin-2-one], the pIC50 at BRD4(BD1) (setting [4]) was greater than 6.30; in test [1] (setting [5]) it was greater than 6.30; in test [2] (setting [6]) it was less than 5.30; in test [3] (setting [7]) it was greater than 6.30.
`Cn1cc(-c2cc(S(C)(=O)=O)ccc2OCC2CC2)ccc1=O` [Example 98, 5-[2-(cyclopropylmethoxy)-5-methylsulfonylphenyl]-1-methylpyridin-2-one]: the negative logarithm of the IC50 (pIC50) is 5.30 to 6.30 on BRD4(BD1) (class symbols A/B/C), 5.30 to 6.30 in test [1] (setting [8]), less than 5.30 in test [2] (setting [9]) and 5.30 to 6.30 in test [3] (setting [10]).
`Cn1cc(-c2cc(S(C)(=O)=O)ccc2OC2CCOC2)c2ccccc2c1=O` (stereo not drawn) [Example 175, 2-methyl-4-[5-methylsulfonyl-2-(oxolan-3-yloxy)phenyl]isoquinolin-1-one]: the pIC50 against BRD4(BD1) (setting [4]) is greater than 6.30; in test [1] (setting [11]) it was greater than 6.30; in test [2] (setting [12]), less than 5.30; in test [3] (setting [13]), greater than 6.30.
As to `CCS(=O)(=O)c1ccc(NCC2CC2)c(-c2ccc(=O)n(C)c2)c1` [Example 473, 5-[2-(cyclopropylmethylamino)-5-ethylsulfonylphenyl]-1-methylpyridin-2-one], the pIC50 against BRD4(BD1) (setting [4]) is greater than 6.30; in test [1] (setting [5]), greater than 6.30; in test [2] (setting [6]) it was less than 5.30; in test [3] (setting [7]), 5.30 to 6.30.
With `CC#CCOc1ccc(S(=O)(=O)CC)cc1-c1cc(OC)c(=O)n(C)c1` [Example 389, 5-(2-but-2-ynoxy-5-ethylsulfonylphenyl)-3-methoxy-1-methylpyridin-2-one], the pIC50 at BRD4(BD1) (setting [4]) was greater than 6.30; in test [1] (setting [5]), greater than 6.30; in test [2] (setting [6]), less than 5.30; in test [3] (setting [7]), 5.30 to 6.30.
As for `COc1ccc(-c2cc(N)c(=O)n(C)c2)cc1NS(C)(=O)=O` [Example 109, N-[5-(5-amino-1-methyl-6-oxopyridin-3-yl)-2-methoxyphenyl]methanesulfonamide], the negative logarithm of the IC50 (pIC50) at BRD4(BD1) (class symbols A/B/C) is 5.30 to 6.30; in test [1] (setting [8]), less than 5.30; in test [2] (setting [9]), less than 5.30; in test [3] (setting [10]) it was less than 5.30.
For `CCS(=O)(=O)c1ccc(Oc2ccc(F)cc2F)c(-c2cc(F)c(=O)n(C)c2)c1` [Example 121, 5-[2-(2,4-difluorophenoxy)-5-ethylsulfonylphenyl]-3-fluoro-1-methylpyridin-2-one], the pIC50 at BRD4(BD1) (class symbols A/B/C) is greater than 6.30; in test [1] (setting [8]) it was greater than 6.30; in test [2] (setting [9]), less than 5.30; in test [3] (setting [10]), 5.30 to 6.30.
On to `CCS(=O)(=O)c1ccc(OCC2CC2)c(-c2cn(C)c(=O)c3cnc(-c4cnn(C)c4)nc23)c1` [Example 226, 8-[2-(cyclopropylmethoxy)-5-ethylsulfonylphenyl]-6-methyl-2-(1-methylpyrazol-4-yl)pyrido[4,3-d]pyrimidin-5-one], for which the negative logarithm of the IC50 (pIC50) against BRD4(BD1) (setting [4]) is greater than 6.30; in test [1] (setting [11]), greater than 6.30; in test [2] (setting [12]), less than 5.30; in test [3] (setting [13]), greater than 6.30.
Take `CC(C)n1cc(Oc2cc(-c3cc(S(C)(=O)=O)ccc3OCC3CC3)cn(C)c2=O)cn1` [Example 294, 5-[2-(cyclopropylmethoxy)-5-methylsulfonylphenyl]-1-methyl-3-(1-propan-2-ylpyrazol-4-yl)oxypyridin-2-one]: the pIC50 at BRD4(BD1) (setting [4]) is greater than 6.30; in test [1] (setting [11]), 5.30 to 6.30; in test [2] (setting [12]) it was less than 5.30; in test [3] (setting [13]) it was less than 5.30.
Turning to `CCS(=O)(=O)Nc1cc(Oc2ccc(F)cc2F)cc(-c2cc(C)c(=O)n(C)c2)c1` [Example 342, N-[3-(2,4-difluorophenoxy)-5-(1,5-dimethyl-6-oxopyridin-3-yl)phenyl]ethanesulfonamide], the pIC50 on BRD4(BD1) (setting [4]) was greater than 6.30; in test [1] (setting [11]), greater than 6.30; in test [2] (setting [12]), 5.30 to 6.30; in test [3] (setting [13]) it was greater than 6.30.
As for `Cn1cc(-c2cc(S(C)(=O)=O)ccc2OCC2CC2)cc(N)c1=O` [Example 116, 3-amino-5-[2-(cyclopropylmethoxy)-5-methylsulfonylphenyl]-1-methylpyridin-2-one], the pIC50 was greater than 6.30 against BRD4(BD1) (class symbols A/B/C), 5.30 to 6.30 in test [1] (setting [8]), less than 5.30 in test [2] (setting [9]) and less than 5.30 in test [3] (setting [10]).
As to `CCS(=O)(=O)Nc1ccc(Oc2ccc(F)cc2F)c(-c2cc(N)c(=O)n(C)c2)c1` [Example 115, N-[3-(5-amino-1-methyl-6-oxopyridin-3-yl)-4-(2,4-difluorophenoxy)phenyl]ethanesulfonamide], the pIC50 was greater than 6.30 on BRD4(BD1) (class symbols A/B/C), greater than 6.30 in test [1] (setting [8]), less than 5.30 in test [2] (setting [9]) and greater than 6.30 in test [3] (setting [10]).
In the case of `CCS(=O)(=O)c1ccc(NCC2CC2)c(-c2cc(N(C)C)c(=O)n(C)c2)c1` [Example 440, 5-[2-(cyclopropylmethylamino)-5-ethylsulfonylphenyl]-3-(dimethylamino)-1-methylpyridin-2-one], the pIC50 at BRD4(BD1) (setting [4]) was greater than 6.30; in test [1] (setting [5]), greater than 6.30; in test [2] (setting [6]), less than 5.30; in test [3] (setting [7]) it was greater than 6.30.
In the case of `Cc1cc(-c2cc(S(C)(=O)=O)ccc2OCC2CC2)nn(C)c1=O` [Example 136, 6-[2-(cyclopropylmethoxy)-5-methylsulfonylphenyl]-2,4-dimethylpyridazin-3-one], the pIC50 at BRD4(BD1) (class symbols A/B/C) was 5.30 to 6.30; in test [1] (setting [8]), 5.30 to 6.30; in test [2] (setting [9]), less than 5.30; in test [3] (setting [10]) it was less than 5.30.
For `Cn1cc(-c2nc(NS(C)(=O)=O)ncc2OCC2CC2)c2cc(F)ccc2c1=O` [Example 159, N-[5-(cyclopropylmethoxy)-4-(6-fluoro-2-methyl-1-oxoisoquinolin-4-yl)pyrimidin-2-yl]methanesulfonamide], the negative-log IC50 (pIC50) is greater than 6.30 against BRD4(BD1) (setting [4]), greater than 6.30 in test [1] (setting [11]), less than 5.30 in test [2] (setting [12]) and greater than 6.30 in test [3] (setting [13]).
Regarding `CCS(=O)(=O)Nc1ccc(Oc2ccc(F)cc2F)c(-c2cc(C(F)(F)F)c(=O)n(C)c2)c1` [Example 138, N-[4-(2,4-difluorophenoxy)-3-[1-methyl-6-oxo-5-(trifluoromethyl)pyridine-3-yl]phenyl]ethanesulfonamide], the pIC50 against BRD4(BD1) (class symbols A/B/C) is greater than 6.30; in test [1] (setting [8]), greater than 6.30; in test [2] (setting [9]) it was less than 5.30; in test [3] (setting [10]) it was greater than 6.30.
For `COCC1COc2c(cc(S(C)(=O)=O)cc2-c2cn(C)c(=O)c3ccccc23)O1` (stereo not drawn) [Example 501, 4-[2-(methoxymethyl)-7-methylsulfonyl-2,3-dihydro-1,4-benzodioxin-5-yl]-2-methylisoquinolin-1-one], the pIC50 on BRD4(BD1) (setting [4]) was greater than 6.30; in test [1] (setting [5]) it was 5.30 to 6.30; in test [2] (setting [6]), less than 5.30; in test [3] (setting [7]), 5.30 to 6.30.
Take `Cc1cc(-c2cc(NS(C)(=O)=O)ccc2OC2CCC(F)(F)CC2)cn(C)c1=O` [Example 447, N-[4-(4,4-difluorocyclohexyl)oxy-3-(1,5-dimethyl-6-oxopyridin-3-yl)phenyl]methanesulfonamide]: the pIC50 is greater than 6.30 on BRD4(BD1) (setting [4]), greater than 6.30 in test [1] (setting [5]), less than 5.30 in test [2] (setting [6]) and greater than 6.30 in test [3] (setting [7]).
On to `Cc1cc(-c2cc(S(C)(=O)=O)ccc2NC2CCOCC2)cn(C)c1=O` [Example 436, 1,3-dimethyl-5-[5-methylsulfonyl-2-(oxan-4-ylamino)phenyl]pyridin-2-one], for which the negative-log IC50 (pIC50) on BRD4(BD1) (setting [4]) is greater than 6.30; in test [1] (setting [5]) it was greater than 6.30; in test [2] (setting [6]) it was less than 5.30; in test [3] (setting [7]), 5.30 to 6.30.
For the molecule `COc1ccc(-c2cn(C)c(=O)c3cc(F)ccc23)cc1S(=O)(=O)NCc1ccccc1` [Example 60, N-benzyl-5-(7-fluoro-2-methyl-1-oxoisoquinolin-4-yl)-2-methoxybenzenesulfonamide], the pIC50 was 5.30 to 6.30 against BRD4(BD1) (class symbols A/B/C), 5.30 to 6.30 in test [1] (setting [8]), less than 5.30 in test [2] (setting [9]) and greater than 6.30 in test [3] (setting [10]).
Regarding `Cn1cc(-c2cc(S(C)(=O)=O)ncc2OCC2CC2)c2ccccc2c1=O` [Example 200, 4-[5-(cyclopropylmethoxy)-2-methylsulfonylpyridin-4-yl]-2-methylisoquinolin-1-one], the pIC50 at BRD4(BD1) (setting [4]) was greater than 6.30; in test [1] (setting [11]), greater than 6.30; in test [2] (setting [12]) it was less than 5.30; in test [3] (setting [13]), 5.30 to 6.30.
Turning to `Cn1cc(-c2cc(S(C)(=O)=O)ccc2NC2CCOC2)c2ccccc2c1=O` (stereo not drawn) [Example 190, 2-methyl-4-[5-methylsulfonyl-2-(oxolan-3-ylamino)phenyl]isoquinolin-1-one], the pIC50 was greater than 6.30 at BRD4(BD1) (setting [4]), 5.30 to 6.30 in test [1] (setting [11]), less than 5.30 in test [2] (setting [12]) and 5.30 to 6.30 in test [3] (setting [13]).
Regarding `CCS(=O)(=O)Nc1ccc(Oc2ccc(F)cc2F)c(-c2cn(C)c(=O)c3ncoc23)c1` [Example 240, N-[4-(2,4-difluorophenoxy)-3-(5-methyl-4-oxo-[1,3]oxazolo[4,5-c]pyridin-7-yl)phenyl]ethanesulfonamide], the pIC50 against BRD4(BD1) (setting [4]) is greater than 6.30; in test [1] (setting [11]), greater than 6.30; in test [2] (setting [12]) it was less than 5.30; in test [3] (setting [13]) it was greater than 6.30.
Consider `COc1ccc(-c2cn(C)c(=O)c3cnccc23)cc1S(=O)(=O)NCc1ccccc1` [Example 54, N-benzyl-2-methoxy-5-(2-methyl-1-oxo-2,7-naphthyridin-4-yl) benzenesulfonamide], for which the pIC50 on BRD4(BD1) (class symbols A/B/C) was less than 5.30; in test [1] (Cell-MTS, class symbols A/B/C), 5.30 to 6.30; in test [2] (Cell-MTS, class symbols A/B/C), less than 5.30; in test [3] (Cell-MTS, class symbols A/B/C), less than 5.30.
